Patent US20230147257A1 (DONG-A ST CO., LTD., priority 2020, published 2023)
Structures can show the parent of a compound that is named as a salt. Where two headings read alike, the source gives them in different places.

Target: T1, AhR (Homo sapiens, UniProt P35869)
T1 construct: host or cells: HepG2
T1 sequence (P35869 11-848): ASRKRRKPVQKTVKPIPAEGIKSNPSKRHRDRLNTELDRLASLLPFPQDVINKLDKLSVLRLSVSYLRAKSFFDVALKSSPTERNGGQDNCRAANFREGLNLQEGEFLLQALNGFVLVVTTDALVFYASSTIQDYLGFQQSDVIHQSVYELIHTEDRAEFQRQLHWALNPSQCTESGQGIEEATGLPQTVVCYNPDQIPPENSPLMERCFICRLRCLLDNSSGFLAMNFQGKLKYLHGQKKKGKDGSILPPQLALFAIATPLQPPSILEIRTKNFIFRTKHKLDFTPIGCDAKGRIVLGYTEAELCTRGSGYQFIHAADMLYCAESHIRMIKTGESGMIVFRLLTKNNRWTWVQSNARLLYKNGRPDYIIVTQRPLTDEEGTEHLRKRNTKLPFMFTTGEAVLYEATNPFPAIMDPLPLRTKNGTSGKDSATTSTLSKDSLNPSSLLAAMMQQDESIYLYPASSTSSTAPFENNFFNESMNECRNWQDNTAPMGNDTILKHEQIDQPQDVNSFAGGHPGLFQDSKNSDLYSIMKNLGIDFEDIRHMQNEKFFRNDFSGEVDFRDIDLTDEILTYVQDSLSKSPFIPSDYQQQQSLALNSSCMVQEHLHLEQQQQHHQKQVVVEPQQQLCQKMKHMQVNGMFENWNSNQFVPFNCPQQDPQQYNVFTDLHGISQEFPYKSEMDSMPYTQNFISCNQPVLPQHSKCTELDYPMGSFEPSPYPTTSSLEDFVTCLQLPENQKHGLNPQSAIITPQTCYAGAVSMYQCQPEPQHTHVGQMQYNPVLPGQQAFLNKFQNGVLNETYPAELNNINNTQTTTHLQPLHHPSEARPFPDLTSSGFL
Assay: In vitro assay 1: XRE-luciferase reporter assay, antagonism in human cell line (HepG2)
Type: cell-based
Conditions: HepG2 XRE-luciferase, 6 hours, read-out: Assay 1: AhR-Luc Human Antagonism (IC50)
Text: In Vitro XRE-Luciferase Reporter Assay (In Vitro Assay 1, 2, 3)
AhR activation leads the induction of target gene expression such as CYP1A1 and CYP1B1 by AhR binding to AhR-responsive DNA elements also known as xenobiotics responsive elements (XRE). The assay for measuring AhR activity herein is the luciferase assay using cell lines transfected with luciferase reporter plasmid containing XREs at the upstream of the reporter gene. Cells transfected with XRE-luciferase reporter (XRE-Luc) plasmid drive luciferase activity reflecting activation and inhibition of AhR in the cells. In addition to transfection with XRE-reporter vector, cells were co-transfected with Nano-luciferase reporter gene construct (Nano-Luc) containing constitutively active promoter as internal control. Kynurenine (an endogenous AhR agonist) was used to stimulate cells to test antagonistic properties of the compounds. The half-maximal inhibitory concentration (IC50) or half-maximal effective concentration (EC50) value was calculated using nonlinear regression (four parameters) with Prism8.0 software (GraphPad).
In Vitro Assay 1: Antagonism in Human Cell Line
HepG2 (human hepatoma cell line) cell line with a XRE-luciferase reporter either transiently or stably (Invivogen) were plated in complete medium and incubated at 37° C. in a CO2 incubator. After 24 hours, cells were treated with kynurenine (50* or 200 μM) alone (negative control) or with test compounds for 6 hours. Luciferase activity was measured with a commercial kit such as the Promega Luciferase kit or other reagents for measuring luciferase activity. Relative luciferase activity (Firefly/Nano-Luc) was used to calculate IC50 values. The relative luciferase activity was further normalized with kynurenine alone group as the maximum control and the vehicle group as the minimum control. (IC50 values are grouped as A, B, C and D, whereby A: IC50<0.01 μM; B: 0.01<IC50<0.1 μM; C: 0.1<IC50<1.0 μM; D: IC50>1.0 μM)

[1] = cells treated with kynurenine 200 μM (no *)
[2] = cells treated with kynurenine 50 μM (*)

| SMILES | IC50 [1] [nM] | IC50 [2] [nM] |
| --- | --- | --- |
| O=c1c2cc(-c3ccc(C(F)(F)F)nc3)nc(-c3cccnc3)c2ncn1[C@@H]1CC[C@H](O)C1 [Example 65, 3-((1R,3S)-3-hydroxycyclopentyl)-8-(pyridin-3-yl)-6-(6-(trifluoromethyl)pyridin-3-yl)pyrido[3,4-d]pyrimidin-4(3H)-one] | < 10 | – |
| CC(CN)n1cnc2c(-c3cccnc3)nc(-c3ccc(N4CCOCC4)cc3)cc2c1=O (stereo not shown) [Example 90, 3-(1-aminopropan-2-yl)-6-(4-morpholinophenyl)-8-(pyridin-3-yl)pyrido[3,4-d]pyrimidin-4(3H)-one] | 100 to 1000 | – |
| CC(C)(O)Cn1cnc2c(-c3cccnc3)nc(-c3ccc(C(F)(F)F)cc3)cc2c1=O [Example 39, 3-(2-hydroxy-2-methylpropyl)-8-(pyridin-3-yl)-6-(4-(trifluoromethyl)phenyl)pyrido[3,4-d]pyrimidin-4(3H)-one] | > 1000 | – |
| CC(CO)n1cnc2c(-c3ccc(C(F)(F)F)cc3)nc(-c3ccc(C(F)(F)F)cc3)cc2c1=O (stereo not shown) [Example 6, 3-(1-hydroxypropan-2-yl)-6,8-bis(4-(trifluoromethyl)phenyl)pyrido[3,4-d]pyrimidin-4(3H)-one] | – | 100 to 1000 |
| CC(CO)n1cnc2c(-c3cccnc3)nc(-c3ccc(-c4ccc(Cl)cc4)cc3)cc2c1=O (stereo not shown) [Example 74, 6-(4′-chloro-[1,1′-biphenyl]-4-yl)-3-(1-hydroxypropan-2-yl)-8-(pyridin-3-yl)pyrido[3,4-d]pyrimidin-4(3H)-one] | < 10 | – |
| Cn1cc(-c2cc3c(=O)n([C@H]4CC[C@H](O)CC4)cnc3c(-c3cnn(C)c3)n2)cn1 [Example 9, 3-((1r,4r)-4-hydroxycyclohexyl)-6,8-bis(1-methyl-1H-pyrazol-4-yl)pyrido[3,4-d]pyrimidin-4(3H)-one] | – | 100 to 1000 |
| CC(C(=O)O)n1cnc2c(-c3cccnc3)nc(-c3ccc(Cl)cc3)cc2c1=O (stereo not shown) [Example 83, 2-(6-(4-chlorophenyl)-4-oxo-8-(pyridin-3-yl)pyrido[3,4-d]pyrimidin-3(4H)-yl)propanoic acid, 2,2,2-trifluoroacetic acid salt] | 100 to 1000 | – |
| O=c1c2cc(-c3ccc(Cl)cc3)nc(-c3cccnc3)c2ncn1C1CCCC(O)C1 (stereo not shown) [Example 63, 6-(4-chlorophenyl)-3-(3-hydroxycyclohexyl)-8-(pyridin-3-yl)pyrido[3,4-d]pyrimidin-4(3H)-one] | < 10 | – |
| Cn1cc(-c2nc(-c3ccc(Cl)cc3)cc3c(=O)n([C@H]4CC[C@@H](O)C4)cnc23)cn1 [Example 34, 6-(4-chlorophenyl)-3-((1S,3R)-3-hydroxycyclopentyl)-8-(1-methyl-1H-pyrazol-4-yl)pyrido[3,4-d]pyrimidin-4(3H)-one] | < 10 | – |
| CC(=O)NCC(C)n1cnc2c(-c3cccnc3)nc(-c3ccc(N4CCOCC4)cc3)cc2c1=O (stereo not shown) [Example 92, N-(2-(6-(4-morpholinophenyl)-4-oxo-8-(pyridin-3-yl)pyrido[3,4-d]pyrimidin-3(4H)-yl)propyl)acetamide] | 10 to 100 | – |
| Cn1cc(-c2nc(-c3ccc(C(F)(F)F)cc3)cc3c(=O)n(-c4cccc(O)c4)cnc23)cn1 [Example 27, 3-(3-hydroxyphenyl)-8-(1-methyl-1H-pyrazol-4-yl)-6-(4-(trifluoromethyl)phenyl)pyrido[3,4-d]pyrimidin-4(3H)-one] | < 10 | – |
| CC(CNS(C)(=O)=O)n1cnc2c(-c3cccnc3)nc(-c3ccc(N4CCOCC4)cc3)cc2c1=O (stereo not shown) [Example 91, N-(2-(6-(4-morpholinophenyl)-4-oxo-8-(pyridin-3-yl)pyrido[3,4-d]pyrimidin-3(4H)-yl)propyl)methanesulfonamide] | < 10 | – |
| O=c1c2cc(-c3ccc(C(F)(F)F)cc3)nc(-c3cccnc3)c2ncn1CC(O)C(F)(F)F (stereo not shown) [Example 25, 8-(pyridin-3-yl)-3-(3,3,3-trifluoro-2-hydroxypropyl)-6-(4-(trifluoromethyl)phenyl)pyrido[3,4-d]pyrimidin-4(3H)-one] | > 1000 | – |
| O=c1c2cc(-c3ccc(Cl)cc3)nc(-c3cccnc3)c2ncn1-c1cccc(O)c1 [Example 61, 6-(4-chlorophenyl)-3-(3-hydroxyphenyl)-8-(pyridin-3-yl)pyrido[3,4-d]pyrimidin-4(3H)-one] | < 10 | – |
| Cn1cc(-c2nc(-c3ccc(C(F)(F)F)cc3)cc3c(=O)n([C@H]4CC[C@@H](O)C4)cnc23)cn1 [Example 35, 3-((1S,3R)-3-hydroxycyclopentyl)-8-(1-methyl-1H-pyrazol-4-yl)-6-(4-(trifluoromethyl)phenyl)pyrido[3,4-d]pyrimidin-4(3H)-one] | < 10 | – |
| CC(C)C(CO)n1cnc2c(-c3cccnc3)nc(-c3ccc(C(F)(F)F)nc3)cc2c1=O (stereo not shown) [Example 43, 3-(1-hydroxy-3-methylbutan-2-yl)-8-(pyridin-3-yl)-6-(6-(trifluoromethyl)pyridin-3-yl)pyrido[3,4-d]pyrimidin-4(3H)-one] | > 1000 | – |
| CC(O)Cn1cnc2c(-c3cnn(C)c3)nc(-c3cnn(C)c3)cc2c1=O (stereo not shown) [Example 11, 3-(2-hydroxypropyl)-6,8-bis(1-methyl-1H-pyrazol-4-yl)pyrido[3,4-d]pyrimidin-4(3H)-one] | – | 100 to 1000 |
| CC(C(=O)O)n1cnc2c(-c3cccnc3)nc(-c3ccc(C(F)(F)F)cc3)cc2c1=O (stereo not shown) [Example 84, 2-(4-oxo-8-(pyridin-3-yl)-6-(4-(trifluoromethyl)phenyl)pyrido[3,4-d]pyrimidin-3(4H)-yl)propanoic acid, 2,2,2-trifluoroacetic acid salt] | 100 to 1000 | – |
| O=c1c2cc(-c3cnc(C(F)(F)F)nc3)nc(-c3cccnc3)c2ncn1[C@@H]1CC[C@H](O)C1 [Example 72, 3-((1R,3S)-3-hydroxycyclopentyl)-8-(pyridin-3-yl)-6-(2-(trifluoromethyl)pyrimidin-5-yl)pyrido[3,4-d]pyrimidin-4(3H)-one, TFA salt] | 10 to 100 | – |
| O=c1c2cc(-c3ccc(N4CCOCC4)cc3)nc(-c3cccnc3)c2ncn1[C@@H]1CC[C@H](O)C1 [Example 73, 3-((1R,3S)-3-hydroxycyclopentyl)-6-(4-morpholinophenyl)-8-(pyridin-3-yl)pyrido[3,4-d]pyrimidin-4(3H)-one] | < 10 | – |
| O=c1c2cc(-c3ccc(Cl)cc3)nc(-c3cccnc3)c2ncn1[C@H]1CC[C@@H](O)C1 [Example 32, 6-(4-chlorophenyl)-3-((1S,3R)-3-hydroxycyclopentyl)-8-(pyridin-3-yl)pyrido[3,4-d]pyrimidin-4(3H)-one] | < 10 | – |
| CC(CN)n1cnc2c(-c3cccnc3)nc(-c3ccc(C(F)(F)F)cc3)cc2c1=O (stereo not shown) [Example 85, 3-(1-aminopropan-2-yl)-8-(pyridin-3-yl)-6-(4-(trifluoromethyl)phenyl)pyrido[3,4-d]pyrimidin-4(3H)-one] | 10 to 100 | – |
| CC(=O)OC(C)(C)Cn1cnc2c(-c3cccnc3)nc(-c3ccc(Cl)cc3)cc2c1=O [Example 36, 1-(6-(4-chlorophenyl)-4-oxo-8-(pyridin-3-yl)pyrido[3,4-d]pyrimidin-3(4H)-yl)-2-methylpropan-2-yl acetate] | 10 to 100 | – |
| CC(C)C(CO)n1cnc2c(-c3cccnc3)nc(-c3ccc(Cl)cc3)cc2c1=O (stereo not shown) [Example 41, 6-(4-chlorophenyl)-3-(1-hydroxy-3-methylbutan-2-yl)-8-(pyridin-3-yl)pyrido[3,4-d]pyrimidin-4(3H)-one] | > 1000 | – |
| CC(C)C(CO)n1cnc2c(-c3cccnc3)nc(-c3ccc(C(F)(F)F)cc3)cc2c1=O (stereo not shown) [Example 42, 3-(1-hydroxy-3-methylbutan-2-yl)-8-(pyridin-3-yl)-6-(4-(trifluoromethyl)phenyl)pyrido[3,4-d]pyrimidin-4(3H)-one] | > 1000 | – |
